# Measured values as given in article PMC12133000 (PLOS One, 2025).
# Where two headings read alike, the source gives them in different places.
# Assay: Pharmacokinetics of rivaroxaban in rats after avitinib or gefitinib pretreatment
# Type: in vivo, Sprague–Dawley (SD) rats
# Settings: male, Sprague-Dawley, rat, plasma, oral
# Experimental: Eighteen male Sprague–Dawley (SD) rats weighing 300 ± 20 g were provided by the Experimental Animal Center of Wenzhou Medical University (Wenzhou, China) and kept under controlled conditions at a temperature of 23 ± 2 °C, relative humidity of 50 ± 10%, and 12 h light–dark cycle. Eighteen male SD rats were randomly assigned to three groups: avitinib, gefitinib, and control, with six rats per group. Prior to the experiment, the rats were not administered any other medications and fasted for 12 h. The experimental procedures and protocols adhered to Animal Ethics standards and were approved by the Animal Care and Use Committee of Wenzhou Medical University (approval no. wydw2019–650). All rats were anesthetized with sodium pentobarbital (40mg/kg, i.p) to relieve pain. The rats were killed through cervical dislocation.
# Prior to the experiment in vivo, the six rats in the avitinib group were administered 30 mg/kg avitinib and 0.5% sodium carboxymethyl cellulose (CMC-Na) solution by gavage daily for 7 d. […] The supernatant was collected and stored at −80 °C. After thawing, 50 μL of plasma was extracted; 100 μL of acetonitrile solution containing midazolam (200 ng/mL) was then added to induce protein precipitation. After vortexing for 30 s and centrifuging at 13,000 rpm for 5 min, the […].
# All assays were performed in triplicate, and the results are expressed as mean ± standard deviation. DAS software v. […] SPSS v. 25.0 (IBM, NY, USA) was used for data processing. Student’s t-tests were used to detect differences between groups. Differences with p < 0.05 were considered statistically significant.
compound,measurement,setting,value
"O=C(NC[C@H]1CN(c2ccc(N3CCOCC3=O)cc2)C(=O)O1)c1ccc(Cl)s1 [rivaroxaban, Rivaroxaban]",concentration at 6 h,"10 mg/kg, rivaroxaban ng/ml mean, control (rivaroxaban alone) group, mean of rats 13-18, time 6",141 ng/mL
same,concentration at 8 h,"10 mg/kg, rivaroxaban ng/ml mean, control (rivaroxaban alone) group, mean of rats 13-18, time 8",93 ng/mL
same,concentration at 12 h,"10 mg/kg, rivaroxaban ng/ml mean, control (rivaroxaban alone) group, mean of rats 13-18, time 12",76.8 ng/mL
same,concentration at 0.25 h,"10 mg/kg, rivaroxaban ng/ml, 对照 (control, rivaroxaban alone) group, individual rats 13-18, time 0.25",305 ng/mL
same,concentration at 0.5 h,"10 mg/kg, rivaroxaban ng/ml, 对照 (control, rivaroxaban alone) group, individual rats 13-18, time 0.5",434 ng/mL
same,concentration at 1 h,"10 mg/kg, rivaroxaban ng/ml, 对照 (control, rivaroxaban alone) group, individual rats 13-18, time 1",458 ng/mL
same,concentration at 4 h,"10 mg/kg, rivaroxaban ng/ml, 对照 (control, rivaroxaban alone) group, individual rats 13-18, time 4",190 ng/mL
same,concentration at 12 h,"gefitinib group, Mean, read-out: C_last",2070 ng/mL
same,concentration at 5 min,"plasma concentration of rivaroxaban, 5 min, avitinib group, Mean",284 ng/mL
same,concentration at 5 min,"plasma concentration of rivaroxaban, 5 min, avitinib group, single rats No1-No6",237 ng/mL
same,concentration at 5 min,"plasma concentration of rivaroxaban, 5 min, gefitinib group, Mean",626 ng/mL
same,concentration at 0.25 h,"plasma concentration of rivaroxaban, 0.25 h, avitinib group, Mean",588 ng/mL
same,concentration at 0.25 h,"plasma concentration of rivaroxaban, 0.25 h, gefitinib group, Mean",1740 ng/mL
same,concentration at 0.25 h,"plasma concentration of rivaroxaban, 0.25 h, gefitinib group, single rats No1-No6",1690 ng/mL
same,concentration at 0.5 h,"plasma concentration of rivaroxaban, 0.5 h, avitinib group, Mean",1090 ng/mL
same,concentration at 0.5 h,"plasma concentration of rivaroxaban, 0.5 h, gefitinib group, Mean",3670 ng/mL
same,concentration at 0.5 h,"plasma concentration of rivaroxaban, 0.5 h, gefitinib group, single rats No1-No6",4080 ng/mL
same,concentration at 1 h,"plasma concentration of rivaroxaban, 1 h, avitinib group, Mean",1730 ng/mL
same,concentration at 1 h,"plasma concentration of rivaroxaban, 1 h, gefitinib group, Mean",5580 ng/mL
same,concentration at 1 h,"plasma concentration of rivaroxaban, 1 h, gefitinib group, single rats No1-No6",6110 ng/mL
same,concentration at 2 h,"plasma concentration of rivaroxaban, 2 h, avitinib group, Mean",1650 ng/mL
same,concentration at 2 h,"plasma concentration of rivaroxaban, 2 h, gefitinib group, Mean",7180 ng/mL
same,concentration at 3 h,"plasma concentration of rivaroxaban, 3 h, avitinib group, Mean",1390 ng/mL
same,concentration at 3 h,"plasma concentration of rivaroxaban, 3 h, gefitinib group, Mean",7690 ng/mL
same,concentration at 3 h,"plasma concentration of rivaroxaban, 3 h, gefitinib group, single rats No1-No6",6480 ng/mL
same,concentration at 4 h,"plasma concentration of rivaroxaban, 4 h, avitinib group, Mean",1010 ng/mL
same,concentration at 4 h,"plasma concentration of rivaroxaban, 4 h, gefitinib group, Mean",7800 ng/mL
same,concentration at 4 h,"plasma concentration of rivaroxaban, 4 h, gefitinib group, single rats No1-No6",6780 ng/mL
same,concentration at 6 h,"plasma concentration of rivaroxaban, 6 h, avitinib group, Mean",538 ng/mL
same,concentration at 6 h,"plasma concentration of rivaroxaban, 6 h, gefitinib group, Mean",5500 ng/mL
same,concentration at 6 h,"plasma concentration of rivaroxaban, 6 h, gefitinib group, single rats No1-No6",5830 ng/mL
same,concentration at 8 h,"plasma concentration of rivaroxaban, 8 h, avitinib group, Mean",448 ng/mL
same,concentration at 8 h,"plasma concentration of rivaroxaban, 8 h, gefitinib group, Mean",3710 ng/mL
same,concentration at 8 h,"plasma concentration of rivaroxaban, 8 h, gefitinib group, single rats No1-No6",4960 ng/mL
same,concentration at 12 h,"plasma concentration of rivaroxaban, 12 h, avitinib group, Mean",80.9 ng/mL
same,concentration at 12 h,"plasma concentration of rivaroxaban, 12 h, gefitinib group, Mean",1640 ng/mL
same,concentration at 24 h,"rivaroxaban ng/ml mean, 吉非替尼 (gefitinib) group, mean (four rats), time 24",144 ng/mL
same,concentration at 5 min,"rivaroxaban ng/ml mean, 吉非替尼 (gefitinib) group, mean of rats 7-12, time 0.0833",626 ng/mL
same,concentration at 0.25 h,"rivaroxaban ng/ml mean, 吉非替尼 (gefitinib) group, mean of rats 7-12, time 0.25",1740 ng/mL
same,concentration at 0.5 h,"rivaroxaban ng/ml mean, 吉非替尼 (gefitinib) group, mean of rats 7-12, time 0.5",3670 ng/mL
same,concentration at 1 h,"rivaroxaban ng/ml mean, 吉非替尼 (gefitinib) group, mean of rats 7-12, time 1",5580 ng/mL
same,concentration at 2 h,"rivaroxaban ng/ml mean, 吉非替尼 (gefitinib) group, mean of rats 7-12, time 2",7180 ng/mL
same,concentration at 3 h,"rivaroxaban ng/ml mean, 吉非替尼 (gefitinib) group, mean of rats 7-12, time 3",7690 ng/mL
same,concentration at 4 h,"rivaroxaban ng/ml mean, 吉非替尼 (gefitinib) group, mean of rats 7-12, time 4",7800 ng/mL
same,concentration at 6 h,"rivaroxaban ng/ml mean, 吉非替尼 (gefitinib) group, mean of rats 7-12, time 6",5500 ng/mL
same,concentration at 8 h,"rivaroxaban ng/ml mean, 吉非替尼 (gefitinib) group, mean of rats 7-12, time 8",3710 ng/mL
